Source: US20250100973A1, “DIIMIDE DERIVATIVE, AND PREPARATION METHOD THEREFOR AND USE THEREOF” (XIANGBEI WELMAN PHARMACEUTICAL CO., LTD., priority 2022, published 2025)

Test system: HT-29 human colon cancer cells
Experiment: In vitro antiproliferative activity (resazurin, 96 h)
Assay type: cell-based
Conditions: HT-29, 96 h culture, resazurin fluorescence; read-out: IC50 grade of inhibitory effect on tumor cells, HT-29
Description: (§1) Objective: to test the antiproliferative activity of the compound in the present disclosure against a variety of tumor cells. […] Amonafide and lomustine were commercially available. Test cells: human colon cancer cells (HT-29, COLO 205), human lung cancer cells (NCI-H460, A549), and human leukemia cells (HL-60, U-937). Test methods: each tumor cell was processed separately. Cells were cultured in a culture medium at 37° C. for 24 h for later use. The cells in the exponential growth phase were harvested, treated with trypsin to prepare a cell suspension, the cell suspension was centrifuged, and then the cell pellet was resuspended in a small amount of fresh culture medium as a stock cell solution. A 96-well plate was taken, and blank control groups, cell control groups and compound treatment groups were set up. […] The remaining wells were filled with 200 μL of 10% PBS. The plate was placed in an incubator overnight. 100 μL of each test compound at different dilution concentrations was added into each well of the compound treatment groups, 10 and the dilution concentrations of the compound were as shown in Table 2. […] After adding the drug, the plate was placed in an incubator to be cultured for 96 hours, 22 μL of resazurin sodium solution (Alarm blue, SIGMA R7017) was added into each well, and the plate was returned to the incubator to be cultured for another 4 h. The plate was shaken for 10 s after being taken out. A fluorescence value of each well was tested at 530/590 nm. The above operations were repeated for three times. The IC50 value of each test compound was calculated with the Prism7 software. The IC50 was divided into different grades according to value, that is: […]

Structure (SMILES)	IC50
CN(CCNC(=O)N(CCCl)N=O)CCN1C(=O)c2cccc3cc([N+](=O)[O-])cc(c23)C1=O [Compound I-01]	< 0.5 µM
O=NN(CCCl)C(=O)N1CCN(CCN2C(=O)c3cccc4cc([N+](=O)[O-])cc(c34)C2=O)CC1 [Compound I-08]	1 to 5 µM

Same assay, conditions: Homo sapiens, HT-29, 96 h, read-out: IC50 grade of inhibitory effect on tumor cells, HT-29

Structure (SMILES)	IC50
O=NN(CCCl)C(=O)NCCN1C(=O)c2cccc3cc([N+](=O)[O-])cc(c23)C1=O [Compound 1]	21 to 50 µM
O=NN(CCCl)C(=O)NCCCCN1C(=O)c2cccc3cccc(c23)C1=O [Compound 1d]	21 to 50 µM

Same assay, conditions: Homo sapiens; HT-29, 96 h culture, resazurin fluorescence; read-out: IC50 grade of inhibitory effect on tumor cells, HT-29

Structure (SMILES)	IC50
CN(C)CCN1C(=O)c2cccc3cc(N)cc(c23)C1=O [Amonafide]	11 to 20 µM

Test system: NCI-H460 human lung cancer cells
Experiment: as above
Assay type: cell-based
Conditions: Homo sapiens, NCI-H460, 96 h, read-out: IC50 grade of inhibitory effect on tumor cells, NCI-H460
Description: as §1

Structure (SMILES)	IC50
O=NN(CCCl)C(=O)NCCN1C(=O)c2cccc3cc([N+](=O)[O-])cc(c23)C1=O [Compound 1]	11 to 20 µM
O=NN(CCCl)C(=O)NCCCCN1C(=O)c2cccc3cccc(c23)C1=O [Compound 1d]	51 to 100 µM

Same assay, conditions: Homo sapiens; NCI-H460, 96 h culture, resazurin fluorescence; read-out: IC50 grade of inhibitory effect on tumor cells, NCI-H460

Structure (SMILES)	IC50
CN(C)CCN1C(=O)c2cccc3cc(N)cc(c23)C1=O [Amonafide]	11 to 20 µM

Same assay, conditions: NCI-H460, 96 h culture, resazurin fluorescence; read-out: IC50 grade of inhibitory effect on tumor cells, NCI-H460

Structure (SMILES)	IC50
CN(CCNC(=O)N(CCCl)N=O)CCN1C(=O)c2cccc3cc([N+](=O)[O-])cc(c23)C1=O [Compound I-01]	< 0.5 µM
O=NN(CCCl)C(=O)N1CCN(CCN2C(=O)c3cccc4cc([N+](=O)[O-])cc(c34)C2=O)CC1 [Compound I-08]	1 to 5 µM

Test system: COLO 205 human colon cancer cells
Experiment: as above
Assay type: cell-based
Conditions: COLO 205, 96 h culture, resazurin fluorescence; read-out: IC50 grade of inhibitory effect on tumor cells, COLO 205
Description: as §1

Structure (SMILES)	IC50
CN(CCNC(=O)N(CCCl)N=O)CCN1C(=O)c2cccc3cc([N+](=O)[O-])cc(c23)C1=O [Compound I-01]	< 0.5 µM
O=NN(CCCl)C(=O)N1CCN(CCN2C(=O)c3cccc4cc([N+](=O)[O-])cc(c34)C2=O)CC1 [Compound I-08]	0.5 to 1 µM

Same assay, conditions: Homo sapiens, COLO 205, 96 h, read-out: IC50 grade of inhibitory effect on tumor cells, COLO 205

Structure (SMILES)	IC50
O=NN(CCCl)C(=O)NCCN1C(=O)c2cccc3cc([N+](=O)[O-])cc(c23)C1=O [Compound 1]	21 to 50 µM
O=NN(CCCl)C(=O)NCCCCN1C(=O)c2cccc3cccc(c23)C1=O [Compound 1d]	21 to 50 µM

Same assay, conditions: Homo sapiens; COLO 205, 96 h culture, resazurin fluorescence; read-out: IC50 grade of inhibitory effect on tumor cells, COLO 205

Structure (SMILES)	IC50
CN(C)CCN1C(=O)c2cccc3cc(N)cc(c23)C1=O [Amonafide]	5 to 10 µM

Test system: U-937 human leukemia cells
Experiment: as above
Assay type: cell-based
Conditions: Homo sapiens, U-937, 96 h, read-out: IC50 grade of inhibitory effect on tumor cells, U-937
Description: as §1

Structure (SMILES)	IC50
O=NN(CCCl)C(=O)NCCN1C(=O)c2cccc3cc([N+](=O)[O-])cc(c23)C1=O [Compound 1]	21 to 50 µM
O=NN(CCCl)C(=O)NCCCCN1C(=O)c2cccc3cccc(c23)C1=O [Compound 1d]	11 to 20 µM

Same assay, conditions: Homo sapiens; U-937, 96 h culture, resazurin fluorescence; read-out: IC50 grade of inhibitory effect on tumor cells, U-937

Structure (SMILES)	IC50
CN(C)CCN1C(=O)c2cccc3cc(N)cc(c23)C1=O [Amonafide]	11 to 20 µM

Same assay, conditions: U-937, 96 h culture, resazurin fluorescence; read-out: IC50 grade of inhibitory effect on tumor cells, U-937

Structure (SMILES)	IC50
CN(CCNC(=O)N(CCCl)N=O)CCN1C(=O)c2cccc3cc([N+](=O)[O-])cc(c23)C1=O [Compound I-01]	< 0.5 µM
O=NN(CCCl)C(=O)N1CCN(CCN2C(=O)c3cccc4cc([N+](=O)[O-])cc(c34)C2=O)CC1 [Compound I-08]	0.5 to 1 µM

Test system: HL-60 human leukemia cells
Experiment: as above
Assay type: cell-based
Conditions: HL-60, 96 h culture, resazurin fluorescence; read-out: IC50 grade of inhibitory effect on tumor cells, HL-60
Description: as §1

Structure (SMILES)	IC50
CN(CCNC(=O)N(CCCl)N=O)CCN1C(=O)c2cccc3cc([N+](=O)[O-])cc(c23)C1=O [Compound I-01]	< 0.5 µM
O=NN(CCCl)C(=O)N1CCN(CCN2C(=O)c3cccc4cc([N+](=O)[O-])cc(c34)C2=O)CC1 [Compound I-08]	1 to 5 µM

Same assay, conditions: Homo sapiens, HL-60, 96 h, read-out: IC50 grade of inhibitory effect on tumor cells, HL-60

Structure (SMILES)	IC50
O=NN(CCCl)C(=O)NCCN1C(=O)c2cccc3cc([N+](=O)[O-])cc(c23)C1=O [Compound 1]	11 to 20 µM
O=NN(CCCl)C(=O)NCCCCN1C(=O)c2cccc3cccc(c23)C1=O [Compound 1d]	21 to 50 µM

Same assay, conditions: Homo sapiens; HL-60, 96 h culture, resazurin fluorescence; read-out: IC50 grade of inhibitory effect on tumor cells, HL-60

Structure (SMILES)	IC50
CN(C)CCN1C(=O)c2cccc3cc(N)cc(c23)C1=O [Amonafide]	5 to 10 µM

Test system: A549 human lung cancer cells
Experiment: as above
Assay type: cell-based
Conditions: A549, 96 h culture, resazurin fluorescence; read-out: IC50 grade of inhibitory effect on tumor cells, A549
Description: as §1

Structure (SMILES)	IC50
CN(CCNC(=O)N(CCCl)N=O)CCN1C(=O)c2cccc3cc([N+](=O)[O-])cc(c23)C1=O [Compound I-01]	0.5 to 1 µM
O=NN(CCCl)C(=O)N1CCN(CCN2C(=O)c3cccc4cc([N+](=O)[O-])cc(c34)C2=O)CC1 [Compound I-08]	0.5 to 1 µM

Same assay, conditions: Homo sapiens, A549, 96 h, read-out: IC50 grade of inhibitory effect on tumor cells, A549

Structure (SMILES)	IC50
O=NN(CCCl)C(=O)NCCN1C(=O)c2cccc3cc([N+](=O)[O-])cc(c23)C1=O [Compound 1]	5 to 10 µM
O=NN(CCCl)C(=O)NCCCCN1C(=O)c2cccc3cccc(c23)C1=O [Compound 1d]	21 to 50 µM

Same assay, conditions: Homo sapiens; A549, 96 h culture, resazurin fluorescence; read-out: IC50 grade of inhibitory effect on tumor cells, A549

Structure (SMILES)	IC50
CN(C)CCN1C(=O)c2cccc3cc(N)cc(c23)C1=O [Amonafide]	1 to 5 µM

Test system: COLO 205 transplanted tumor
Experiment: In vivo antitumor effect in COLO 205 transplanted tumor model
Parameters: species or system BALB/c nude mice
Conditions: nude mice, COLO 205 xenograft, intragastric 10 mg/kg once a day, 21 times, last day
Description: Objective: to further test the in vivo antitumor effects of compounds of the present disclosure
Test compounds: I-01, I-08.
Test animals: 5-week-old female BALB/c nude mice were fed normally for 7 days, and mice with good physical conditions were selected for experiments.
Tumor cells: human colon cancer cells COLO 205 were subjected to cell culture in a RPMI-1640 medium containing 10% fetal bovine serum. The passaging was carried out for 1-2 times a week, with a passaging ratio of 1:3 to 1:6.
Modeling and grouping: COLO 205 cells in a logarithmic growth phase were harvested and injected into the anterior right mammary fat pad of nude mice with an injection volume of 5×10^6 cells per animal to establish a COLO 205 transplanted tumor model. The animal status was observed regularly, tumor diameter was measured, and tumor volume was calculated. After the tumor volume reached approximately 150 mm^3, tumor-bearing mice in good health and with similar tumor volumes were selected and randomly divided into a solvent control group, an I-01 group, and an I-08 group.
Administration: each test compound was dissolved in solvent, and each animal group was treated with corresponding compounds or blank solvent, respectively. The administration method was intragastric administration, with a dosage of 10 mg/kg, once a day, and a total of 21 times.
Result: on the last day of the experiment, tumor diameter and tumor weight were measured, tumor growth inhibition rate (GI) and tumor weight inhibition rate (IR) were calculated.
Tumor growth inhibition rate=100%×[1−(Tvt−Tvini)÷(Cvt−Cvini)], where Tvt represents tumor volume of the treatment group at the end of the experiment, Tvini represents initial tumor volume of the treatment group, Cvt represents tumor volume of the solvent control group at the end of the experiment, and Cvini represents initial tumor volume of the solvent control group.
Tumor weight inhibition rate=100%×(Cw−Tw)÷Cw, where Cw represents tumor weight of the solvent control group at the end of the experiment, and Tw represents tumor weight of the treatment group at the end of the experiment.

Structure (SMILES)	Tumor growth inhibition rate (%)	Tumor weight inhibition rate (%)
CN(CCNC(=O)N(CCCl)N=O)CCN1C(=O)c2cccc3cc([N+](=O)[O-])cc(c23)C1=O [Compound I-01]	75.3%	69.3%
O=NN(CCCl)C(=O)N1CCN(CCN2C(=O)c3cccc4cc([N+](=O)[O-])cc(c34)C2=O)CC1 [Compound I-08]	43.5%	31.2%
